The METLIN SMRT retention time set (Domingo-Almenara et al. 2019)

Test: gradient 5% acetonitrile 3 min, to 50% in 2 min, to 85% in 15 min, held 3 min, 100 µL/min
Conditions: column: Zorbax Extend-C18 2.1 x 50 mm; eluents: water / acetonitrile, 0.1% formic acid
In short: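 Retention time was recorded from adduct peaks, which were picked computationally and each inspected manually. Pure standards ran in mixtures of ~100 molecules on HPLC coupled to a quadrupole time-of-flight mass spectrometer, in positive and negative ionization mode, through a Zorbax Extend-C18 column (2.1 × 50 mm, 1.8 μm) at 100 μL/min. Eluents were water and acetonitrile, each with 0.1% formic acid.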

Row | RP-LC retention time [s] | SMILES
1 | 1200 | Cc1ccc(-c2nc(C3CC(=O)N(c4ccc(Cl)cc4)C3)no2)cc1C (configuration not stated)
2 | 1130 | CCCCn1c(=O)c2ccccc2n(Cc2nc(-c3ccccc3OCC)no2)c1=O
3 | 776 | CCCCC(=O)Nc1ccc2nc(N3CCN(c4cccc(C)c4C)CC3)cc(C(=O)O)c2c1
4 | 832 | CCCn1cc(CCNC(=O)c2ccc(Br)cc2)c2cccnc21
5 | 975 | Cc1c(Cl)cccc1Nc1c(-c2ccc3c(c2)OCO3)nc2cnccn12
6 | 642 | CC(=O)N1CCN(Cc2ccc([C@H](C)Nc3nccc(N4C(=O)OC[C@@H]4C(C)C)n3)cc2)CC1
7 | 715 | Cc1cc(C(=O)N2CCC(c3nc4ccccc4s3)CC2)n(C)n1
8 | 865 | CCCn1cc(CCNS(=O)(=O)c2ccc(OC)c(Cl)c2)c2cccnc21
9 | 854 | COc1ccc(-n2cc(C(=O)OCc3ccccn3)c3ccccc3c2=O)cc1
10 | 598 | O=C(NCc1ccc(F)cc1Cl)c1ccc2c(c1)ncn2CCN1CCCC1
11 | 687 | CN(C)c1ccc(-c2nc3ncccn3c2Nc2ccccc2)cc1
12 | 1050 | CCOc1ccccc1CNC(=O)COc1nc(CC)nc2oc(C)c(C)c12
13 | 1050 | CCCN1C(=O)c2cc(S(=O)(=O)NCC(C)C)ccc2Oc2cccnc21
14 | 589 | CCc1nc2cccnc2n1-c1ccc(C(=O)N(C)C)cc1

Continued, compound first:

Row | SMILES | RP-LC retention time [s]
15 | Cc1cccc(NS(=O)(=O)c2cc(-c3[nH]ncc3C(=O)N3CCCCC3)oc2C)c1C | 822
16 | COc1cccc(-c2cc3n(n2)C(NCCc2cccs2)CNC3=O)c1 (configuration not stated) | 838
17 | O=C(Cc1nnc(-c2ccccc2)o1)NC1CCCC1 | 675
18 | CCCn1ccc2oc(C)c(C(=O)NCc3c(C)cc(C)cc3C)c2c1=O | 1200
19 | COc1cc(N)c(Cl)cc1C(=O)OCCN1CCCCC1 | 629
20 | CCC1CCCCN1Cc1nc(Cn2ccn3nc(-c4ccc(OC)cc4)cc3c2=O)no1 (configuration not stated) | 679
21 | COc1cccc(CNC(=O)Nc2cc3c(cc2N2CCOCC2)n(C)c(=O)n3C)c1 | 723
22 | O=S(=O)(c1ccc(-c2noc(COc3ccc(Cl)cc3)n2)cc1)N1CCCC1 | 1170
23 | CCOC(=O)c1c(NCCC(C)C)c2cccc(Cl)c2[nH]c1=O | 890
24 | CCCOc1ccc(CN(C(=O)Cc2coc3ccc(C)cc23)C2CCS(=O)(=O)C2)cc1 (configuration not stated) | 1130
25 | Cc1sc(-c2nc(C(C)C)cs2)cc1S(=O)(=O)NCc1ccccc1 | 1190
26 | Cc1nn(C)c(C)c1CNC(=O)C1CCN(c2nnc3ccccn23)CC1 | 515
27 | COC(=O)CNC(=O)NCC(=O)N1CCc2ccccc21 | 647
28 | COc1ccc(N2CC(C(=O)NC(C(=O)N3CCCc4ccccc43)c3ccccc3)CC2=O)cc1 (configuration not stated) | 900
29 | CCOC(=O)c1c(S(=O)(=O)N2CCC(C(=O)Nc3ccc(C)c(F)c3)CC2)c(C)n(C)c1C | 924
30 | CCCCN(CC)C(=O)c1cc2c(=O)oc3ccccc3c2n1C | 910
31 | O=c1n(Cc2cc(F)cc(F)c2)nc2c(-c3nc(-c4cccc(F)c4)no3)cccn12 | 1050
32 | COc1ccc(OC)c(S(=O)(=O)Cc2nc(-c3cccc(Br)c3)no2)c1 | 1030
33 | O=c1cc[nH]c2c(C(F)(F)F)cccc12 | 609
34 | O=c1cc(N2CCOCC2)c(-c2ccccc2)n[nH]1 | 623
35 | CCc1cc(=O)n(CC(=O)Nc2cc(OC)cc(OC)c2)c(N2CCOCC2)n1 | 738
36 | O=c1[nH]c(-c2ccccc2)nc2sc(-c3ccccc3)cc12 | 980
37 | CSc1cccc(NC(=O)Cn2c(=O)n(C3CC3)c(=O)c3nscc32)c1 | 705
